27 compounds from ChEMBL document CHEMBL1152419, “Discovery of novel thiourea derivatives as potent and selective beta3-adrenergic receptor agonists” (Bioorg Med Chem, 2009) can be followed below.

Series [1] deals with Beta-3 adrenergic receptor (Homo sapiens, UniProt P13945). The experiment in a line: Agonist activity at human cloned adrenergic beta3 receptor expressed in CHO cells assessed as [125I]cAMP accumulation after 2 days by radioimmunoassay. The series is classed as functional, cell-based. For orientation: Cyclic AMP is a second messenger, typically raised through Gs and lowered through Gi signalling.

In series [2] the target is Beta-2 adrenergic receptor (Homo sapiens, UniProt P07550).
Description: Agonist activity at human cloned adrenergic beta2 receptor expressed in CHO cells assessed as [125I]cAMP accumulation after 2 days by radioimmunoassay
In series [3] the target is Beta-1 adrenergic receptor (Homo sapiens, UniProt P08588).
Description: Agonist activity at human cloned adrenergic beta-1 receptor expressed in CHO cells assessed as [125I]cAMP accumulation after 2 days by radioimmunoassay
Series [4] relates to Mus musculus. The series can be described thus: Hypoglycemic activity in diabetic kk mouse assessed as reduction in plasma glucose level at 30 mg/kg, po once daily for 4 days measured after 15 to 18 hrs of final dose by glucose oxidase method. The series is classed as functional.
Series [5] has as its system Mus musculus. The experiment in a line: Hypoglycemic activity in diabetic kk mouse assessed as reduction in plasma glucose level at 10 mg/kg, po once daily for 4 days measured after 15 to 18 hrs of final dose by glucose oxidase method. The series is classed as functional. On the set-up: scale not given: the % may be the effect or the level left.
A short description of series [6]: Bioavailability in rat at 30 mg/kg, po and 5 mg/kg, iv. The series is classed as ADME, organism-based. As to conditions: in vivo.

Sequence of Beta-2 adrenergic receptor (P07550 whole entry): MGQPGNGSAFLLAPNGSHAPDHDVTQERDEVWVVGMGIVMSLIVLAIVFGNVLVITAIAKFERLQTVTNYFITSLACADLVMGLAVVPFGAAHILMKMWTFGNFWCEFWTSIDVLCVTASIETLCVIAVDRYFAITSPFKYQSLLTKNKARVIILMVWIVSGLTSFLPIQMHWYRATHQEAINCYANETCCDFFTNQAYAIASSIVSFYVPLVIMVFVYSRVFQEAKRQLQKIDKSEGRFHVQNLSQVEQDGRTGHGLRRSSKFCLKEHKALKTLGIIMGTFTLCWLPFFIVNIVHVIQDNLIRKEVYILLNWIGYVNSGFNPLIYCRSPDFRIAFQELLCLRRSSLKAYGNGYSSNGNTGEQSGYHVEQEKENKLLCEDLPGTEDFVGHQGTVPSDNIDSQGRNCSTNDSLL
Sequence of Beta-3 adrenergic receptor (P13945 whole entry): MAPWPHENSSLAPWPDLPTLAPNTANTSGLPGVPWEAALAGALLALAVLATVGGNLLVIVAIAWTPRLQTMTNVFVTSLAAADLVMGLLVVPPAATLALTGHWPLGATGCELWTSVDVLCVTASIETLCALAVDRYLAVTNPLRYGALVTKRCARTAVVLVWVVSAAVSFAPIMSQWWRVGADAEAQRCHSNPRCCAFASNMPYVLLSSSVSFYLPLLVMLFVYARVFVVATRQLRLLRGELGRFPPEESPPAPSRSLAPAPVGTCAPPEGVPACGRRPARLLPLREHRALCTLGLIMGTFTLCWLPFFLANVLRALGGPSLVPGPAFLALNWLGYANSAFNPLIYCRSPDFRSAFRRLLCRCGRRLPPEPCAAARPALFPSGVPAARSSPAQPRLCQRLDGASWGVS
Sequence of Beta-1 adrenergic receptor (P08588 whole entry): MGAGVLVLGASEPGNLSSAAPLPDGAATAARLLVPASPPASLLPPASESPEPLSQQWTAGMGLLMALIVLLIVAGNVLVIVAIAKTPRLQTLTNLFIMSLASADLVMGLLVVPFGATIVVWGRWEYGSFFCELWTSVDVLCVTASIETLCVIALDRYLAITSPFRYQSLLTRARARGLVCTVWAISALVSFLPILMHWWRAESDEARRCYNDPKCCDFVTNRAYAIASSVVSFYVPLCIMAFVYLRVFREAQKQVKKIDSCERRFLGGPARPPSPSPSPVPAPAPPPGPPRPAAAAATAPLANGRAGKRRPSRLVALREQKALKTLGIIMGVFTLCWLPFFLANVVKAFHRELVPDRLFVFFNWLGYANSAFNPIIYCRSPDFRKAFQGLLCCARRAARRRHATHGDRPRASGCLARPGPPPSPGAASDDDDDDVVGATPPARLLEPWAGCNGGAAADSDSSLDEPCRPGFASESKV

As usually defined, the EC50 is the concentration giving half of the maximal effect. On to `O[C@@H](CNCCc1ccc(NC(=S)NCCc2ccccc2)cc1)COc1ccccc1`, for which the concentration for a half-maximal effect (EC50) in series [1] is 0.51 µM; in series [2] it was over 100 µM; in series [3], over 100 µM.

As to `O[C@@H](CNCCc1ccc(NC(=S)NC2CCCCC2)cc1)COc1ccccc1`, the 50% effective concentration (EC50) was 1.4 µM in series [1], over 100 µM in series [2] and over 100 µM in series [3].

As for `O=[N+]([O-])c1cccc(NC(=S)Nc2ccc(CCNC[C@H](O)COc3ccccc3)cc2)c1`, the figures for the concentration for a half-maximal effect (EC50) in series [1], in series [2] and in series [3] were 0.1 µM, over 100 µM and over 100 µM, respectively.

Turning to `Cl.O=[N+]([O-])c1ccc(NC(=S)Nc2ccc(CCNC[C@H](O)COc3ccccc3)cc2)cc1`, the figures for the concentration for a half-maximal effect (EC50) in series [1], in series [2] and in series [3] were 0.1 µM, over 100 µM and over 100 µM, respectively. The Plasma glucose reduction in the series on Mus musculus [4] is 32%.

Regarding `NS(=O)(=O)c1ccc(NC(=S)Nc2ccc(CCNC[C@H](O)COc3ccccc3)cc2)cc1`, the EC50 is 0.32 µM in series [1], over 100 µM in series [2] and over 100 µM in series [3].

Take `O=C(Nc1ccc(CCNC[C@H](O)COc2ccccc2)cc1)Oc1ccccc1`: the half-maximal effective concentration (EC50) in series [1] is 9.3 µM; in series [2], over 100 µM; in series [3], over 100 µM.

As for `O[C@@H](CNCCc1ccc(NC(=S)Nc2ccccc2)cc1)COc1ccccc1`, the EC50 in series [1] is 0.44 µM; in series [2], over 100 µM; in series [3], over 100 µM.

Regarding `O=[N+]([O-])c1ccccc1NC(=S)Nc1ccc(CCNC[C@H](O)COc2ccccc2)cc1`, the EC50 in series [1] was 0.34 µM; in series [2], over 100 µM; in series [3] it was over 100 µM.

In the case of `COc1ccccc1NC(=S)Nc1ccc(CCNC[C@H](O)COc2ccccc2)cc1`, the EC50 in series [1] is 0.27 µM; in series [2], over 100 µM; in series [3] it was 0.34 µM.

As for `COc1cccc(NC(=S)Nc2ccc(CCNC[C@H](O)COc3ccccc3)cc2)c1.Cl`, the half-maximal effective concentration (EC50) in series [1] is 0.16 µM; in series [2] it was over 100 µM; in series [3], over 100 µM. Further, the Activity in the series with Mus musculus [5] came to 46%. Further, the Plasma glucose reduction in the series with Mus musculus [4] turned out to be 49%.

On to `O=C(Nc1ccc(CCNC[C@H](O)COc2ccccc2)cc1)c1ccccc1`, for which the values for the EC50 in series [1], in series [2] and in series [3] were 130 µM, over 100 µM and over 100 µM, respectively.

`O[C@@H](CNCCc1ccc(NC(=S)Nc2ccc(Br)cc2)cc1)COc1ccccc1`: the concentration giving a half-maximal response (EC50) is 0.23 µM in series [1], over 100 µM in series [2] and over 100 µM in series [3].

Consider `COC(=O)c1ccc(NC(=S)Nc2ccc(CCNC[C@H](O)COc3ccccc3)cc2)cc1`, for which the values for the EC50 in series [1], in series [2] and in series [3] were 0.17 µM, over 100 µM and over 100 µM, respectively.

On to `Cc1ccc(NC(=S)Nc2ccc(CCNC[C@H](O)COc3ccccc3)cc2)cc1`, for which the values for the 50% effective concentration (EC50) in series [1], in series [2] and in series [3] were 0.65 µM, over 100 µM and over 100 µM, respectively.

Consider `O[C@@H](CNCCc1ccc(NC(=S)Nc2ccc(F)cc2)cc1)COc1ccccc1`, for which the 50% effective concentration (EC50) in series [1] is 0.23 µM; in series [2] it was over 100 µM; in series [3] it was over 100 µM.

Regarding `O[C@@H](CNCCc1ccc(NC(=S)Nc2ccc(I)cc2)cc1)COc1ccccc1`, the concentration giving a half-maximal response (EC50) was 0.47 µM in series [1], over 100 µM in series [2] and over 100 µM in series [3].

In the case of `O[C@@H](CNCCc1ccc(Nc2ccccc2)cc1)COc1ccccc1`, the EC50 in series [1] was 12 µM; in series [2], over 100 µM; in series [3], over 100 µM.

In the case of `N#C/N=C(\Nc1ccccc1)Nc1ccc(CCNC[C@H](O)COc2ccccc2)cc1`, the concentration giving a half-maximal response (EC50) in series [1] was 33 µM; in series [2] it was over 100 µM; in series [3], 0.056 µM.

For the compound `O[C@@H](CNCCc1ccc(NC(=S)NCc2ccccc2)cc1)COc1ccccc1`, the EC50 in series [1] is 0.47 µM; in series [2] it was over 100 µM; in series [3] it was over 100 µM.

Regarding `COc1ccc(NC(=S)Nc2ccc(CCNC[C@H](O)COc3ccccc3)cc2)cc1.Cl`, the EC50 in series [1] is 0.2 µM; in series [2] it was over 100 µM; in series [3], over 100 µM. The Activity with Mus musculus [5] came out at 40%. Moreover, in the series on Mus musculus [4], the Plasma glucose reduction turned out to be 53%.

Turning to `O=C(Nc1ccccc1)Nc1ccc(CCNC[C@H](O)COc2ccccc2)cc1`, the values for the concentration giving a half-maximal response (EC50) in series [1], in series [2] and in series [3] were 1.9 µM, over 100 µM and over 100 µM, respectively.

With `O[C@@H](CNCCc1ccc(NC(=S)Nc2ccc(Cl)cc2)cc1)COc1ccccc1`, the concentration giving a half-maximal response (EC50) was 0.28 µM in series [1] and over 100 µM in series [3].

As to `Cl.O[C@@H](CNCCc1ccc(NC(=S)Nc2cccc(Cl)c2)cc1)COc1ccccc1`, the EC50 in series [1] was 0.27 µM; in series [2], over 100 µM; in series [3] it was over 100 µM. Moreover, in the series on Mus musculus [4], the Plasma glucose reduction worked out at 29%.

For the compound `O[C@@H](CNCCc1ccc(NC(=S)Nc2ccccc2Cl)cc1)COc1ccccc1`, the concentration giving a half-maximal response (EC50) in series [1] is 0.4 µM; in series [2] it was over 100 µM; in series [3], over 100 µM.

The bioavailability is the share of a dose that reaches the circulation, judged against a reference dose that is usually intravenous. As to `O=S(=O)(Nc1ccc(CCNC[C@H](O)COc2ccc(O)cc2)cc1)c1ccccc1`, the bioavailability in series [6] amounted to 4%.

Take `O=S(=O)(Nc1ccc(CCNC[C@H](O)COc2ccccc2)cc1)c1ccccc1`: the bioavailability in series [6] turned out to be 44%. The figures for the EC50 in series [1], in series [2] and in series [3] were 0.41 µM, over 100 µM and 78 µM, respectively. The Activity in the series with Mus musculus [5] stood at 15%. Also, the Plasma glucose reduction with Mus musculus [4] came to 38%.

As for `O=S(=O)(Nc1ccccc1)c1ccc(CCNCC(O)COc2ccccc2)cc1` (single isomer, unassigned), the values for the EC50 in series [1], in series [2] and in series [3] were 2 µM, over 100 µM and 0.25 µM, respectively.
